Test results reported in patent US20250382344A1, “Soluble GLP1/GIP/NPY2 Receptor Triple Agonists” (Boehringer Ingelheim International GmH, priority 2024, published 2025).
Where two headings read alike, the source gives them in different places.

Legend:
hGLP1R = biological target: T1, hGLP1R (Homo sapiens, UniProt P43220); test: hGLP1R CreLuc assay in 0.5% and 100% plasma (HEK-293 CRE-luciferase reporter cells); type: cell-based; conditions: HEK-293 reporter cells
T1 construct: expressed in transfected cells; host or cells: HEK-293 CRE-luciferase reporter cells

[1] = Solubility in 0.1 M phosphate buffer at pH 7; type: physicochemical; conditions: 0.1 M phosphate buffer at pH 7, 10 mg/mL final peptide concentration, shaking 2 hours at room temperature, peptides as TFA-salts, measured sample pH 6.5-7.0; for solubility: read-out: Solubility
hGIPR = biological target: T2, hGIPR (Homo sapiens, UniProt P48546); test: hGIPR CreLuc assay in 0.5% and 100% plasma (CHO CRE-luciferase reporter cells); type: cell-based
T2 construct: expressed in transfected cells; host or cells: CHO CRE-luciferase reporter cells
T2 sequence (P48546 22-466): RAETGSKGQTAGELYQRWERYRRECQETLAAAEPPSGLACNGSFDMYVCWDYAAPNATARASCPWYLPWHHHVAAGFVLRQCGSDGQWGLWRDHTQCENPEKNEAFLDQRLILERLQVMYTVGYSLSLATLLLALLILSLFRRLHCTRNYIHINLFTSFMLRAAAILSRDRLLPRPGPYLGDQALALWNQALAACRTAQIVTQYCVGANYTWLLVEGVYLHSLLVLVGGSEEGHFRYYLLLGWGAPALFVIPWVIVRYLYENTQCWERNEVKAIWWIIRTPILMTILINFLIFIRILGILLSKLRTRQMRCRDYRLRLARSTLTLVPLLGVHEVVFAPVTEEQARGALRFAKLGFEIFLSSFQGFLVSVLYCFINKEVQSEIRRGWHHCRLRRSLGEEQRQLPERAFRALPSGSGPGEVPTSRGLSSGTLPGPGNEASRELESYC

[2] = 0.5% human plasma, read-out: hGLP1R 0.5% hP
[3] = 100% human plasma, read-out: hGLP1R 100% hP
[4] = 0.5% human plasma, read-out: hGIPR 0.5% hP
[5] = 100% human plasma, read-out: hGIPR 100% hP

T1 sequence (P43220 24-463): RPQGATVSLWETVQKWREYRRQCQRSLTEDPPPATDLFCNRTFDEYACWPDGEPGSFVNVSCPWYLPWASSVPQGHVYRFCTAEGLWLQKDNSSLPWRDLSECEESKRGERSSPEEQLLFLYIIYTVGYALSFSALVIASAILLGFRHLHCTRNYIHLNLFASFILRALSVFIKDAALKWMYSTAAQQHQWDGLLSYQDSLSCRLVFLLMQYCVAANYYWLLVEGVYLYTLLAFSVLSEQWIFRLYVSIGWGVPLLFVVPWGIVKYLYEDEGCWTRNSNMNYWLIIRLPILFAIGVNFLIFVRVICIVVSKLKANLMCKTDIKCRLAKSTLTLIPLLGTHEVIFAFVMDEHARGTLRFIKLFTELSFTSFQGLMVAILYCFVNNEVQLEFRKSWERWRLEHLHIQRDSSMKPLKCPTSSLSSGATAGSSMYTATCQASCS

EC50 (hGLP1R; [2]) [nM]	EC50 (hGLP1R; [3]) [nM]	solubility [1] [µg/mL]	EC50 (hGIPR; [4]) [nM]	EC50 (hGIPR; [5]) [nM]	solubility at 2 h [1] [µg/mL]	Structure (SMILES)
0.7	7.1	4400	0.4	19.3		CC[C@H](C)[C@H](NC(=O)[C@H](CC(C)C)NC(=O)[C@H](Cc1c[nH]cn1)NC(=O)[C@H](CCCNC(=N)N)NC(=O)[C@@H](NC(=O)[C@H](Cc1ccccc1)NC(=O)[C@H](CCC(=O)O)NC(=O)C(C)(C)NC(=O)[C@H](CCC(N)=O)NC(=O)[C@H](C)NC(=O)[C@H](CCC(N)=O)NC(=O)[C@H](CCCCN)NC(=O)[C@H](CCC(=O)O)NC(=O)[C@H](CC(C)C)NC(=O)C(C)(C)NC(=O)[C@@H](NC(=O)[C@H](CO)NC(=O)[C@H](Cc1ccc(O)cc1)NC(=O)[C@H](CC(=O)O)NC(=O)[C@H](CO)NC(=O)[C@@H](NC(=O)[C@H](Cc1ccccc1)NC(=O)[C@@H](NC(=O)CNC(=O)[C@H](CCC(=O)O)NC(=O)C(C)(C)NC(=O)[C@@H](N)Cc1ccc(O)cc1)[C@@H](C)O)[C@@H](C)O)[C@@H](C)CC)C(C)C)C(=O)N[C@@H](CC(N)=O)C(=O)N[C@@H](CCCCNC(=O)CC[C@H](NC(=O)CC[C@H](NC(=O)CC[C@H](NC(=O)CC[C@H](NC(=O)CC[C@H](NC(=O)CC[C@H](NC(=O)CCCCCCCCCCCCCCCCC(=O)O)C(=O)O)C(=O)O)C(=O)O)C(=O)O)C(=O)O)C(=O)O)C(=O)NC(C)(C)C(=O)N[C@H](C(=O)N[C@@H](CCCNC(=N)N)C(=O)N[C@@H](CCC(N)=O)C(=O)N[C@@H](CCCNC(=N)N)C(=O)N[C@@H](Cc1ccc(O)cc1)C(N)=O)[C@@H](C)O [Compound 56, Y-Aib-E-G-T-F-T-S-D-Y-S-I-Aib-L-E-K-Q-A-Q-Aib-E-F-V-R-H-L-I-N-K(1,3)-Aib-T-R-Q-R-Y-NH2.C18DA-gGlu-gGlu-gGlu-gGlu-gGlu-gGlu(1,2)]
0.1	0.6		0.1	1.7	8800	CC[C@H](C)[C@H](NC(=O)[C@H](CC(C)C)NC(=O)[C@H](Cc1c[nH]cn1)NC(=O)[C@H](CCCNC(=N)N)NC(=O)[C@@H](NC(=O)[C@H](Cc1ccccc1)NC(=O)[C@H](C)NC(=O)C(C)(C)NC(=O)[C@H](CCC(N)=O)NC(=O)[C@H](C)NC(=O)[C@H](CCC(N)=O)NC(=O)[C@H](CCCCN)NC(=O)[C@H](CC(=O)O)NC(=O)[C@H](CC(C)C)NC(=O)[C@](C)(CC(C)C)NC(=O)[C@@H](NC(=O)[C@H](CO)NC(=O)[C@H](Cc1ccc(O)cc1)NC(=O)[C@H](CC(=O)O)NC(=O)[C@H](CO)NC(=O)[C@@H](NC(=O)[C@H](Cc1ccccc1)NC(=O)[C@@H](NC(=O)CNC(=O)[C@H](CCC(=O)O)NC(=O)C(C)(C)NC(=O)[C@@H](N)Cc1ccc(O)cc1)[C@@H](C)O)[C@@H](C)O)[C@@H](C)CC)C(C)C)C(=O)N[C@@H](CC(N)=O)C(=O)N[C@@H](CCCCNC(=O)[C@@H](N)CCCCNC(=O)CC[C@H](NC(=O)CC[C@H](NC(=O)CC[C@H](NC(=O)CC[C@H](NC(=O)CC[C@H](NC(=O)CC[C@H](NC(=O)CCCCCCCCCCCCCCCCC(=O)O)C(=O)O)C(=O)O)C(=O)O)C(=O)O)C(=O)O)C(=O)O)C(=O)NC(C)(C)C(=O)N[C@H](C(=O)N[C@@H](CCCNC(=N)N)C(=O)N[C@@H](CCC(N)=O)C(=O)N[C@@H](CCCNC(=N)N)C(=O)N[C@@H](Cc1ccc(O)cc1)C(N)=O)[C@@H](C)O [Compound 67, Y-Aib-E-G-T-F-T-S-D-Y-S-I-aMeL-L-D-K-Q-A-Q-Aib-A-F-V-R-H-L-I-N-K(1,3)-Aib-T-R-Q-R-Y-NH2.C18DA-gGlu-gGlu-gGlu-gGlu-gGlu-gGlu-eLys(1,2)]
0.8		1100	0.1			CC[C@H](C)[C@H](NC(=O)[C@H](CC(C)C)NC(=O)[C@H](Cc1c[nH]cn1)NC(=O)[C@H](CCCNC(=N)N)NC(=O)[C@@H](NC(=O)[C@H](Cc1ccccc1)NC(=O)[C@H](C)NC(=O)C(C)(C)NC(=O)[C@H](CCC(N)=O)NC(=O)[C@H](C)NC(=O)[C@H](CCC(N)=O)NC(=O)[C@H](CCCCN)NC(=O)[C@H](CCC(=O)O)NC(=O)[C@H](CC(C)C)NC(=O)C(C)(C)NC(=O)[C@@H](NC(=O)[C@H](CO)NC(=O)[C@H](Cc1ccc(O)cc1)NC(=O)[C@H](CC(=O)O)NC(=O)[C@H](CO)NC(=O)[C@@H](NC(=O)[C@H](Cc1ccccc1)NC(=O)[C@@H](NC(=O)CNC(=O)[C@H](CCC(=O)O)NC(=O)C(C)(C)NC(=O)[C@@H](N)Cc1ccc(O)cc1)[C@@H](C)O)[C@@H](C)O)[C@@H](C)CC)C(C)C)C(=O)N[C@@H](CC(N)=O)C(=O)N[C@@H](CCCCNC(=O)[C@@H](N)CCCCNC(=O)CC[C@H](NC(=O)CC[C@H](NC(=O)CC[C@H](NC(=O)CC[C@H](NC(=O)CC[C@H](NC(=O)CCCCCCCCCCCCCCCCC(=O)O)C(=O)O)C(=O)O)C(=O)O)C(=O)O)C(=O)O)C(=O)NC(C)(C)C(=O)N[C@H](C(=O)N[C@@H](CCCNC(=N)N)C(=O)N[C@@H](CCC(N)=O)C(=O)N[C@@H](CCCNC(=N)N)C(=O)N[C@@H](Cc1ccc(O)cc1)C(N)=O)[C@@H](C)O [Compound 141, Y-Aib-E-G-T-F-T-S-D-Y-S-I-Aib-L-E-K-Q-A-Q-Aib-A-F-V-R-H-L-I-N-K(1,3)-Aib-T-R-Q-R-Y-NH2.C18DA-gGlu-gGlu-gGlu-gGlu-gGlu-eLys(1,2)]
0.6	3		0.1	2.8	4300	CC[C@H](C)[C@H](NC(=O)[C@H](CC(C)C)NC(=O)[C@H](Cc1c[nH]cn1)NC(=O)[C@H](CCCNC(=N)N)NC(=O)[C@@H](NC(=O)[C@H](Cc1ccccc1)NC(=O)[C@H](C)NC(=O)C(C)(C)NC(=O)[C@H](CCC(N)=O)NC(=O)[C@H](C)NC(=O)[C@H](CCC(N)=O)NC(=O)[C@H](CCCCN)NC(=O)[C@H](CCC(=O)O)NC(=O)[C@H](CC(C)C)NC(=O)C(C)(C)NC(=O)[C@@H](NC(=O)[C@H](CO)NC(=O)[C@H](Cc1ccc(O)cc1)NC(=O)[C@H](CC(=O)O)NC(=O)[C@H](CO)NC(=O)[C@@H](NC(=O)[C@H](Cc1ccccc1)NC(=O)[C@@H](NC(=O)CNC(=O)[C@H](CCC(=O)O)NC(=O)C(C)(C)NC(=O)[C@@H](N)Cc1ccc(O)cc1)[C@@H](C)O)[C@@H](C)O)[C@@H](C)CC)C(C)C)C(=O)N[C@@H](CC(N)=O)C(=O)N[C@@H](CCCCNC(=O)[C@@H](N)CCCCNC(=O)CC[C@H](NC(=O)CC[C@H](NC(=O)CC[C@H](NC(=O)CC[C@H](NC(=O)CC[C@H](NC(=O)CC[C@H](NC(=O)CCCCCCCCCCCCCCCCC(=O)O)C(=O)O)C(=O)O)C(=O)O)C(=O)O)C(=O)O)C(=O)O)C(=O)NC(C)(C)C(=O)N[C@H](C(=O)N[C@@H](CCCNC(=N)N)C(=O)N[C@@H](CCC(N)=O)C(=O)N(C)[C@@H](CCCNC(=N)N)C(=O)N[C@@H](Cc1ccc(O)cc1)C(N)=O)[C@@H](C)O [Compound 43, Y-Aib-E-G-T-F-T-S-D-Y-S-I-Aib-L-E-K-Q-A-Q-Aib-A-F-V-R-H-L-I-N-K(1,3)-Aib-T-R-Q-NMeR-Y-NH2.C18DA-gGlu-gGlu-gGlu-gGlu-gGlu-gGlu-eLys(1,2)]
7.1			0.4		5200	CC[C@H](C)[C@H](NC(=O)[C@H](CO)NC(=O)[C@H](Cc1ccc(O)cc1)NC(=O)[C@H](CC(=O)O)NC(=O)[C@H](CO)NC(=O)[C@@H](NC(=O)[C@H](Cc1ccccc1)NC(=O)[C@@H](NC(=O)CNC(=O)[C@H](CCC(=O)O)NC(=O)C(C)(C)NC(=O)[C@@H](N)Cc1ccc(O)cc1)[C@@H](C)O)[C@@H](C)O)C(=O)N[C@@H](CCC(=O)O)C(=O)N[C@@H](CC(C)C)C(=O)N[C@@H](CCC(=O)O)C(=O)N[C@@H](CCCCN)C(=O)N[C@@H](CCC(N)=O)C(=O)N[C@@H](C)C(=O)N[C@@H](CCC(N)=O)C(=O)NC(C)(C)C(=O)N[C@@H](C)C(=O)N[C@@H](Cc1ccccc1)C(=O)N[C@H](C(=O)N[C@@H](CCCNC(=N)N)C(=O)N[C@@H](Cc1c[nH]cn1)C(=O)N[C@@H](CC(C)C)C(=O)N[C@H](C(=O)N[C@@H](CC(N)=O)C(=O)N[C@@H](CCCCNC(=O)[C@@H](N)CCCCNC(=O)CC[C@H](NC(=O)CC[C@H](NC(=O)CC[C@H](NC(=O)CC[C@H](NC(=O)CC[C@H](NC(=O)CC[C@H](NC(=O)CCCCCCCCCCCCCCCCC(=O)O)C(=O)O)C(=O)O)C(=O)O)C(=O)O)C(=O)O)C(=O)O)C(=O)NC(C)(C)C(=O)N[C@H](C(=O)N[C@@H](CCCNC(=N)N)C(=O)N[C@@H](CCC(N)=O)C(=O)N[C@@H](CCCNC(=N)N)C(=O)N[C@@H](Cc1ccc(O)cc1)C(N)=O)[C@@H](C)O)[C@@H](C)CC)C(C)C [Compound 160, Y-Aib-E-G-T-F-T-S-D-Y-S-I-E-L-E-K-Q-A-Q-Aib-A-F-V-R-H-L-I-N-K(1,3)-Aib-T-R-Q-R-Y-NH2.C18DA-gGlu-gGlu-gGlu-gGlu-gGlu-gGlu-eLys(1,2)]
